In patent publication US20210101881A1 (Ancureall Pharmaceutical (Shanghai) Co., Ltd., priority 2018, published 2021) one finds IC50 data, which are given here for 25 molecules.

Each structure is given as a SMILES string. Like-named read-outs stand apart in the source and are kept apart here. A value given as a limit tells only on which side of the number the result lay.

In one assay the target is T1, CDK9/CyclinK kinase (Homo sapiens, UniProt P50750).
T1 construct: purchased Promega Corporation V4105
The assay is described as follows: CDK9 protein kinase activity, ADP-Glo CDK9/CyclinK kinase detection kit. Type of assay: biochemical. The note with it: read-out: IC50 of the compound for inhibiting CDK9 protein kinase activity, CDK9/CyclinK kinase. The procedure: Measurement of CDK9 Protein Kinase Activity
The present compound was dissolved in DMSO (Sigma Aldrich), and the initial concentration of the compound was 1000 nM. A two-fold serial dilution was carried out. The specific operation of CDK9 kinase activity determination was carried out according to the ADP-Go™ CDK9/CyclinK kinase detection experimental procedure. […] Each test sample was tested in duplicate, and the test was repeated once. The inhibitory activity (IC50) of the compound on CDK9 protein kinase was calculated from the dose-inhibition curve of the compound.

For another assay, the system named is MOLM13 cells. The assay is described as follows: Growth inhibition of CDK9-positive cell line MOLM13 in vitro (CCK8/MTT assay). Type of assay: cell-based, human. To be noted: Homo sapiens. Background: Formazan colour is commonly taken as a measure of viable cells.
The mark [1] stands for this setting: MOLM-13, read-out: IC50 of the compound for inhibiting cell growth, MOLM13 cells.
Setting [2] is: MOLM-13, MOLM13 cells, cultured 3 to 6 days, CCK8, read-out: IC50 of the compound for inhibiting cell growth, MOLM13 cells.

T1 sequence (P50750 whole entry): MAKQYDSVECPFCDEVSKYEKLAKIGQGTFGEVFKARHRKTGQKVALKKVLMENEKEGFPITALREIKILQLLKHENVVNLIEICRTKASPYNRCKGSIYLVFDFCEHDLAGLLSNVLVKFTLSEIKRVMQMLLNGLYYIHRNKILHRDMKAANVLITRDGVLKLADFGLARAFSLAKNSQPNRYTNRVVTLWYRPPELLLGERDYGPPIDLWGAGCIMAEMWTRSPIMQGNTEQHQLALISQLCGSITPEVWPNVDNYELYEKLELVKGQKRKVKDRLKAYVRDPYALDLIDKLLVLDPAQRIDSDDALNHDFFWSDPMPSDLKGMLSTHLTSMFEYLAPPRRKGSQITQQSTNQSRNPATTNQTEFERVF
T1 sequence (O75909 whole entry partner): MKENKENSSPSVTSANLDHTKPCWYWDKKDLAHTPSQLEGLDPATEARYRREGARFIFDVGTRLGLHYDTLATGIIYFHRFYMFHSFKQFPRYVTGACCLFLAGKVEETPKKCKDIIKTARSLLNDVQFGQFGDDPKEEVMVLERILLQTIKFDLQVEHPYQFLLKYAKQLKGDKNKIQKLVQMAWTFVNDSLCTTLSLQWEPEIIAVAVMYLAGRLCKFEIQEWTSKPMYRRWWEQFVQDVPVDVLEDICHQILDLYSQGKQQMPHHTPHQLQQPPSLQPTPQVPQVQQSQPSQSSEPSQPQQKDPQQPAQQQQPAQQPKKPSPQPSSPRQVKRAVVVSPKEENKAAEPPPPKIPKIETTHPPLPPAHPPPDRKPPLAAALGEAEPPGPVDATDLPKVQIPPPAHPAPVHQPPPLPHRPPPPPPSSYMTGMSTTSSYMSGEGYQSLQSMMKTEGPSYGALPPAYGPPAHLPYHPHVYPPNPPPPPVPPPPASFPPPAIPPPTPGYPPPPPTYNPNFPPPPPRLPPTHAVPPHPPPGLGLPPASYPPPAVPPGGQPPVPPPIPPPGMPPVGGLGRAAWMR

Regarding `Cc1cc(Nc2ncc(F)c(-n3cc(C(N)=O)c4ccccc43)n2)ccc1N1CCNCC1` [Compound 39, 1-[5-fluoro-2-(3-methyl-4-piperazin-1-yl-phenylamino)-pyrimidin-4-yl]-1H-indole-3-carboxamide], the IC50 on CDK9/CyclinK kinase is 1 to 10 nM; with MOLM13 cells (setting [1]) it was below 1 nM.

Turning to `Cc1cc(Nc2ncc(Cl)c(-n3cc(C(N)=O)c4ccccc43)n2)ccc1N1CCNCC1` [Compound 42, 1-[5-chloro-2-(3-methyl-4-piperazin-1-yl-phenylamino)-pyrimidin-4-yl]-1H-indole-3-carboxamide], the IC50 at CDK9/CyclinK kinase is 1 to 10 nM; with MOLM13 cells (setting [2]), below 1 nM.

In the case of `Cc1cc(Nc2ncc(F)c(-n3cc(C(N)=O)c4ccccc43)n2)ccc1N1CCN(C)CC1` [Compound 55, 1-{5-fluoro-2-[3-methyl-4-(4-methyl-piperazin-1-yl)-phenylamino]-pyrimidin-4-yl}-1H-indole-3-carboxamide], the IC50 at CDK9/CyclinK kinase was 1 to 10 nM; in the assay on MOLM13 cells (setting [2]), below 1 nM.

For `Cc1cc(Nc2ncc(Cl)c(-n3cc(C(N)=O)c4ccccc43)n2)ccc1N1CCN(C)CC1` [Compound 56, 1-{5-chloro-2-[3-methyl-4-(4-methyl-piperazin-1-yl)-phenylamino]-pyrimidin-4-yl}-1H-indole-3-carboxamide], the IC50 was 1 to 10 nM on CDK9/CyclinK kinase and below 1 nM in the assay with MOLM13 cells (setting [2]).

Consider `Cc1cc(Nc2ncc(F)c(-n3cc(C(N)=O)c4ccccc43)n2)ccc1N(C)CCN(C)C` [Compound 88, 1-(2-{4-[(2-dimethylamino-ethyl)-methyl-amino]-3-methyl-phenylamino}-5-fluoro-pyrimidin-4-yl)-1H-indole-3-carboxamide], for which the IC50 at CDK9/CyclinK kinase was 10 to 100 nM; in the assay with MOLM13 cells (setting [2]) it was below 1 nM.

With `Cc1cc(Nc2ncc(Cl)c(-n3cc(C(N)=O)c4ccccc43)n2)ccc1N(C)CCN(C)C` [Compound 89, 1-(5-chloro-2-{4-[(2-dimethylamino-ethyl)-methyl-amino]-3-methyl-phenylamino}-pyrimidin-4-yl)-1H-indole-3-carboxamide], the IC50 was 10 to 100 nM at CDK9/CyclinK kinase and below 1 nM in the assay with MOLM13 cells (setting [2]).

With `CN1CCN(c2cccc(Nc3ncc(F)c(-n4cc(C(N)=O)c5ccccc54)n3)c2)CC1` [Compound 115, 1-{5-fluoro-2-[3-(4-methyl-piperazin-1-yl)-phenylamino]-pyrimidin-4-yl}-1H-indole-3-carboxamide], the IC50 on CDK9/CyclinK kinase and with MOLM13 cells (setting [1]) was below 1 nM throughout.

Consider `Cc1cnn(-c2cccc(Nc3ncc(F)c(-n4cc(C(N)=O)c5ccccc54)n3)c2)c1` [Compound 154, 1-{5-fluoro-2-[3-(4-methyl-pyrazol-1-yl)-phenylamino]-pyrimidin-4-yl}-1H-indole-3-carboxamide], for which the IC50 in the assay with MOLM13 cells (setting [2]) lay within 100 to 1000 nM.

With `CC(O)CN1CCN(c2cccc(Nc3ncc(F)c(-n4cc(C(N)=O)c5ccccc54)n3)c2)CC1` (stereo not shown) [Compound 155, 1-(5-fluoro-2-{3-[4-(2-hydroxy-propyl)-piperazin-1-yl]-phenylamino}-pyrimidin-4-yl)-1H-indole-3-carboxamide], the IC50 in the assay on MOLM13 cells (setting [2]) is 1 to 10 nM.

For the molecule `NC(=O)c1cn(-c2nc(Nc3cccc(N4CCN(CC5CO5)CC4)c3)ncc2F)c2ccccc12` (stereo not shown) [Compound 156, 1-{5-fluoro-2-[3-(4-oxiranylmethyl-piperazin-1-yl)-phenylamino]-pyrimidin-4-yl}-1H-indole-3-carboxamide], the IC50 in the assay with MOLM13 cells (setting [2]) was in the range of 10 to 100 nM.

As to `NC(=O)c1cn(-c2nc(Nc3cccc(N4CCN(CC5CCOCC5)CC4)c3)ncc2F)c2ccccc12` [Compound 157, 1-(5-fluoro-2-{3-[4-(tetrahydro-pyran-4-ylmethyl)-piperazin-1-yl]-phenylamino}-pyrimidin-4-yl)-1H-indole-3-carboxamide], the IC50 in the assay with MOLM13 cells (setting [2]) lay in the range of 10 to 100 nM.

With `NC(=O)c1cn(-c2nc(Nc3cccc(N4CCN(C(=O)C5CCCO5)CC4)c3)ncc2F)c2ccccc12` (stereo not shown) [Compound 158, 1-(5-fluoro-2-{3-[4-(tetrahydro-furan-2-carbonyl)-piperazin-1-yl]-phenylamino}-pyrimidin-4-yl)-1H-indole-3-carboxamide], the IC50 with MOLM13 cells (setting [2]) lay in the range of 10 to 100 nM.

With `COc1ccc2c(c1)c(C(N)=O)cn2-c1nc(Nc2cccc(N3CCN(C(C)C)CC3)c2)ncc1F` [Compound 159, 1-{5-fluoro-2-[3-(4-isopropyl-piperazin-1-yl)-phenylamino]-pyrimidin-4-yl}-5-methoxy-1H-indole-3-carboxamide], the IC50 in the assay on MOLM13 cells (setting [2]) is 1 to 10 nM.

Take `NC(=O)c1cn(-c2nc(Nc3cccc(N4CCN(CC5CCCO5)CC4)c3)ncc2F)c2ccccc12` (stereo not shown) [Compound 160, 1-(5-fluoro-2-{3-[4-(tetrahydro-furan-2-ylmethyl)-piperazin-1-yl]-phenylamino}-pyrimidin-4-yl)-1H-indole-3-carboxamide]: the IC50 in the assay with MOLM13 cells (setting [2]) fell in the range of 10 to 100 nM.

On to `CCN1CCN(c2cccc(Nc3ncc(F)c(-n4cc(C(N)=O)c5cc(N)ccc54)n3)c2)CC1` [Compound 162, 5-amino-1-{2-[3-(4-ethyl-piperazin-1-yl)-phenylamino]-5-fluoro-pyrimidin-4-yl}-1H-indole-3-carboxamide], for which, in the assay on MOLM13 cells (setting [2]), the IC50 fell in the range of 1 to 10 nM.

With `CCN1CCN(c2cccc(Nc3ncc(F)c(-n4cc(C(N)=O)c5cc(O)ccc54)n3)c2)CC1` [Compound 163, 1-{2-[3-(4-ethyl-piperazin-1-yl)-phenylamino]-5-fluoro-pyrimidin-4-yl}-5-hydroxy-1H-indole-3-carboxamide], the IC50 at CDK9/CyclinK kinase and with MOLM13 cells (setting [2]) was below 1 nM throughout.

Consider `CCN1CCN(c2cccc(Nc3ncc(F)c(-n4cc(C(N)=O)c5cc(OCCOC)ccc54)n3)c2)CC1` [Compound 164, 1-{2-[3-(4-ethyl-piperazin-1-yl)-phenylamino]-5-fluoro-pyrimidin-4-yl}-5-(2-methoxy-ethoxy)-1H-indole-3-carboxamide], for which the IC50 in the assay with MOLM13 cells (setting [2]) is 1 to 10 nM.

Take `CC(=O)N1CCN(c2cccc(Nc3ncc(F)c(-n4cc(C(N)=O)c5ccccc54)n3)c2)CC1` [Compound 165, 1-{2-[3-(4-acetyl-piperazin-1-yl)-phenylamino]-5-fluoro-pyrimidin-4-yl}-1H-indole-3-carboxamide]: the IC50 with MOLM13 cells (setting [2]) was 10 to 100 nM.

Consider `NC(=O)c1cn(-c2nc(Nc3cccc(N4CCN(C(=O)C5CCOCC5)CC4)c3)ncc2F)c2ccccc12` [Compound 166, 1-(5-Fluoro-2-{3-[4-(tetrahydro-pyran-4-carbonyl)-piperazin-1-yl]-phenylamino}-pyrimidin-4-yl)-1H-indole-3-carboxamide], for which, in the assay on MOLM13 cells (setting [2]), the IC50 is 10 to 100 nM.

Consider `NC(=O)c1cn(-c2nc(Nc3cccc(N4CCN(C(=O)N5CCOCC5)CC4)c3)ncc2F)c2ccccc12` [Compound 167, 1-(5-fluoro-2-{3-[4-(morpholin-4-carbonyl)-piperazin-1-yl]-phenylamino}-pyrimidin-4-yl)-1H-indole-3-carboxamide], for which the IC50 on CDK9/CyclinK kinase and with MOLM13 cells (setting [2]) was below 1 nM throughout.

Turning to `CCN1CCN(c2cccc(Nc3ncc(F)c(-n4cc(C(N)=O)c5cc(OCCN6CCOCC6)ccc54)n3)c2)CC1` [Compound 168, 1-{2-[3-(4-ethyl-piperazin-1-yl)-phenylamino]-5-fluoro-pyrimidin-4-yl}-5-(2-morpholin-4-yl-ethoxy)-1H-indole-3-carboxamide], the IC50 in the assay on MOLM13 cells (setting [2]) is 10 to 100 nM.

As for `NC(=O)c1cn(-c2nc(Nc3cccc(N4CCN(C(=O)C5CCCN5)CC4)c3)ncc2F)c2ccccc12` (stereo not shown) [Compound 169, 1-(5-fluoro-2-{3-[4-(pyrrolidin-2-carbonyl)-1-piperazin-1-yl]-phenylamino}-pyrimidin-4-yl)-1H-indole-3-carboxamide], the IC50 with MOLM13 cells (setting [2]) fell in the range of 1 to 10 nM.

Turning to `NC(=O)c1cn(-c2nc(Nc3cccc(N4CCN(C(=O)C5CCOC5)CC4)c3)ncc2F)c2ccccc12` (stereo not shown) [Compound 170, 1-(5-fluoro-2-{3-[4-(tetrahydro-furan-3-carbonyl)-piperazin-1-yl]-phenylamino}-pyrimidin-4-yl)-1H-indole-3-carboxamide], in the assay with MOLM13 cells (setting [2]), the IC50 was 1 to 10 nM.

Regarding `NC(=O)c1cn(-c2nc(Nc3cccc(N4CCN(C(=O)C5CCCC5)CC4)c3)ncc2F)c2ccccc12` [Compound 171], the IC50 in the assay on MOLM13 cells (setting [2]) fell in the range of 10 to 100 nM.

Consider `CNC(=O)N1CCN(c2cccc(Nc3ncc(F)c(-n4cc(C(N)=O)c5ccccc54)n3)c2)CC1` [Compound 172, 1-{5-fluoro-2-[3-(4-methylcarbamoyl-piperazin-1-yl)-phenylamino]-pyrimidin-4-yl}-1H-indole-3-carboxamide], for which the IC50 in the assay with MOLM13 cells (setting [2]) is 10 to 100 nM.
